From publication PMC6881254, “ABCA1 transporter reduces amphotericin B cytotoxicity in mammalian cells” (Cellular and Molecular Life Sciences: CMLS, 2019) come the findings set out here.

The subject of one assay is A1G and MMG cell lines. The experiment in a line: Total cellular cholesterol content (Amplex Red) after zaragozic acid treatment. The assay is classed as cell-based, Chinese hamster. The conditions noted are these: 10 µM ZA in ΔFBS medium 16 h, compared with non-ZA-treated cells cultured in ΔFBS medium. How it is done:
To lower the cholesterol content in the cells, A1G and MMG cell lines were seeded at either 1 × 10^4 cells/well in a 96-well plate (cytotoxicity) or 4 × 10^5 cells/well (cholesterol content) in a 6-well plate in complete Ham’s F-12 medium for 8 h to allow the cells to attach to the plate. Cells were then washed three times with Ham’s F-12 medium supplemented with delipidated serum (Biowest) (ΔFBS medium) and incubated with 10 µM zaragozic acid (ZA) in ΔFBS medium for 16 h at 37 °C, 5% CO2. […]
The cells were harvested, washed three times with PBS and lysed with RIPA buffer (25 mM HEPES, pH 7.4, 150 mM NaCl, 1% NP40, 10 mM MgCl2, 1 mM EDTA, 2% glycerol, protease and phosphatase inhibitor cocktail) for 30 min on ice. […] Total cellular cholesterol level was determined enzymatically by cholesterol oxidase using the Amplex Red Cholesterol Assay Kit (Thermo Fisher Scientific) according to the manufacturer’s recommendations. […] The protein concentration was measured by BCA Assay Kit (Sigma-Aldrich). […] Fluorescence was measured using excitation at 560 nm and emission detection at 590 nm with a Cary Eclipse fluorescence microplate reader (Agilent Technologies). […] The final cholesterol content was calculated in ng of cholesterol per µg of protein.

Assay [1] has as its system MMG cells. Nature of the assay: AmB cytotoxicity, MTT assay in MMG cells (CHO-K1 stably expressing non-active ABCA1MM-GFP). The assay is classed as cell-based, Chinese hamster. The following applies: Cricetulus griseus, ± SE. Here is the method:
(§1) A1G and MMG cell lines, mock and GW3965-treated macrophages were seeded in triplicate in 96-well plates at 1 × 10^4 cells/well for CHO cells and 2 × 10^4 cells for Raw 264.7 macrophages and incubated in complete Ham’s F-12 medium at 37 °C, 5% CO2 overnight to allow the cells to attach to the plate. […] For probucol treatment, the cells were preincubated with 10 µM probucol in complete Ham’s F-12 medium at 37 °C, 5% CO2 for 2 h. Then, the medium was removed and AmB was added in different concentrations (from 0 to 40 µg/mL) in complete Ham’s F-12 medium containing 10 µM probucol and cells were incubated for additional 3 h at 37 °C, 5% CO2. After incubation, the medium was removed and 3-[4,5-dimethylthiazol-2-yl]-2,5-diphenyltetrazolium bromide (MTT, 0.5 mg/mL, Sigma-Aldrich) in complete Ham’s F-12 was added. Cells were incubated for 4 h at 37 °C, then MTT was removed carefully and the formazan crystals were dissolved in DMSO. Plates were shaken for 10 min before reading them on a UVM 340 microplate reader (Biogenet) at 550 nm with a reference wavelength of 630 nm. The cell viability was estimated as the percentage of the control, which was the cells untreated with any agents (100%).
(§2) To lower the cholesterol content in the cells, A1G and MMG cell lines were seeded at either 1 × 10^4 cells/well in a 96-well plate (cytotoxicity) or 4 × 10^5 cells/well (cholesterol content) in a 6-well plate in complete Ham’s F-12 medium for 8 h to allow the cells to attach to the plate. Cells were then washed three times with Ham’s F-12 medium supplemented with delipidated serum (Biowest) (ΔFBS medium) and incubated with 10 µM zaragozic acid (ZA) in ΔFBS medium for 16 h at 37 °C, 5% CO2. To reload the plasma membrane with cholesterol, cells after ZA treatment were washed three times with ΔFBS medium and incubated with 100 µM cholesterol–1 mM methyl-β-cyclodextrin complex in ΔFBS medium for 30 min at 37 °C, 5% CO2. As a control, cells were incubated for 16 h with only ΔFBS medium at 37 °C, 5% CO2. After treatment, cells were either processed with AmB cytotoxicity MTT assay or lysed as described for cholesterol content measurement.
(§3) All mathematical and statistical analysis was performed using the GraphPad Prism 7 software package (GraphPad). For IC50 value determination, a nonlinear fit (inhibitor vs. normalized response with variable slope) of cell viability in the function of AmB decreased concentrations was applied. The statistical significance of differences was assessed either by two-way ANOVA or by t test. For all tests, the significance level (alpha, α) was set to 0.05. Significant differences are indicated in individual graphs with p values as follows: ****p < 0.0001, ***p < 0.001, **p < 0.01, *p < […]. If the differences were not significant, nothing is stated. For each result, an appropriate description of the analysis appears in the figure legend.
(In general: Tetrazolium dyes change colour on reduction, which living cells bring about.)

For another assay, the system named is CHO-K1 wild-type cells. Nature of the assay: AmB cytotoxicity, MTT assay in CHO-K1 wild-type cells. Format: cell-based, Chinese hamster. The following applies: Cricetulus griseus, AmB 3 h, read-out: IC50 (cell viability, MTT). Here is the method: (§4) A1G and MMG cell lines, mock and GW3965-treated macrophages were seeded in triplicate in 96-well plates at 1 × 10^4 cells/well for CHO cells and 2 × 10^4 cells for Raw 264.7 macrophages and incubated in complete Ham’s F-12 medium at 37 °C, 5% CO2 overnight to allow the cells to attach to the plate. The medium was then removed, AmB was added in complete Ham’s F-12 medium (or in ΔFBS medium, see next paragraph) in different concentrations (from 0 to 40 µg/mL) and cells were incubated for 3 h at 37 °C. For probucol treatment, the cells were preincubated with 10 µM probucol in complete Ham’s F-12 medium at 37 °C, 5% CO2 for 2 h. Then, the medium was removed and AmB was added in different concentrations (from 0 to 40 µg/mL) in complete Ham’s F-12 medium containing 10 µM probucol and cells were incubated for additional 3 h at 37 °C, 5% CO2. After incubation, the medium was removed and 3-[4,5-dimethylthiazol-2-yl]-2,5-diphenyltetrazolium bromide (MTT, 0.5 mg/mL, Sigma-Aldrich) in complete Ham’s F-12 was added. […] Plates were shaken for 10 min before reading them on a UVM 340 microplate reader (Biogenet) at 550 nm with a reference wavelength of 630 nm. […]
(§5) All mathematical and statistical analysis was performed using the GraphPad Prism 7 software package (GraphPad). […] The statistical significance of differences was assessed either by two-way ANOVA or by t test. […]

The subject of assay [2] is A1G cells. Nature of the assay: [3H]-cholesterol efflux to AmB as acceptor in A1G cells. Format: cell-based, Chinese hamster. The conditions noted are these: 20 µg/mL AmB. How it is done: (§6) The [^3H]-cholesterol efflux protocol was adapted from Yang and Gelissen. Briefly, A1G and MMG cells were seeded in 0.5 mL of complete Ham’s F12 medium at 5 × 10^4 cells/well in 24-well plates and grown overnight at 37 °C, 5% CO2. The next day, the cell culture medium was replaced either with 0.25 mL of complete Ham’s F12 medium or complete Ham’s F12 medium containing 1 µCi/mL of [^3H]-cholesterol (Perkin Elmer) and incubated for 24 h at 37 °C, 5% CO2. On the last day, the cell medium was removed, and the cells were washed three times with PBS buffer (with intermediate 15 min incubation in PBS buffer). Afterwards, cells were incubated for 3 h in 0.25 mL of complete Ham’s F12 medium containing (or not, in controls) 20 µg/mL of AmB at 37 °C, 5% CO2. […] One hundred fifty microliters of each of cell medium and cell lysate were added to 5 mL of Ecolite + scintillation cocktail (MPBIO) and radioactivity was counted in CPM mode using a Beckman LS analyzer (Beckman Coulter). After subtraction of background radioactivity, the percentage of [^3H]-cholesterol efflux was calculated according to the formula: (CPM in media)/[(CPM in media) + (CPM in cells)].

Assay [3] concerns A1G cells. Nature of the assay: AmB cytotoxicity, MTT assay in A1G cells (CHO-K1 stably expressing ABCA1-GFP). The following applies: Cricetulus griseus, ± SE. Format: cell-based, Chinese hamster. Here is the method:
as §1, §2, §3

Another assay concerns Raw 264.7 macrophages. The experiment in a line: AmB cytotoxicity, MTT assay in Raw 264.7 macrophages. The conditions noted are these: Mus musculus, RAW264.7, AmB 3 h, read-out: IC50 (cell viability, MTT). The assay is classed as cell-based, murine. How it is done: as §4, with “CO2.” for “CO2. After incubation, the medium was removed and 3-[4,5-dimethylthiazol-2-yl]-2,5-diphenyltetrazolium bromide (MTT, 0.5 mg/mL, Sigma-Aldrich) in complete Ham’s F-12 was added.”
as §5
Cells were exposed to increased concentrations of AmB, ranging from 0 to 40 µg/mL, for 3 h and then the viability was analyzed by MTT assay. […]

Assay [4] relates to MMG cells. The experiment in a line: [3H]-cholesterol efflux to AmB as acceptor in MMG cells. Format: cell-based, Chinese hamster. The conditions noted are these: 20 µg/mL AmB. How it is done:
as §6

In brackets after ≈: the same amount, converted by molar mass. Like-named read-outs stand apart in the source and are kept apart here.

Take `C=C(CC[C@]12O[C@H](C(=O)O)[C@@](O)(C(=O)O)[C@](C(=O)O)(O1)[C@H](OC(=O)/C=C/[C@@H](C)C[C@@H](C)CC)[C@H]2O)[C@@H](OC(C)=O)[C@H](C)Cc1ccccc1` [zaragozic acid]: in the assay with A1G and MMG cell lines, the “decrease of total cellular cholesterol content” value was “approximately 50%”.
Turning to `C[C@@H]1[C@H](O)[C@@H](C)/C=C/C=C/C=C/C=C/C=C/C=C/C=C/[C@H](O[C@@H]2O[C@H](C)[C@@H](O)[C@H](N)[C@@H]2O)C[C@@H]2O[C@](O)(C[C@@H](O)C[C@@H](O)[C@H](O)CC[C@@H](O)C[C@@H](O)CC(=O)O[C@H]1C)C[C@H](O)[C@H]2C(=O)O` [AmB, Amphotericin B], the IC50 with MMG cells [1] (CHO-K1, 3 h, MMG, complete Ham's F12 medium, AmB 3 h) was 13.1 ± 1 µg/mL (≈ 14.2 µM); in the assay with MMG cells [1] (CHO-K1, 6 h, MMG, complete Ham's F12 medium, 6 h AmB), 10.6 ± 0.48 µg/mL (≈ 11.5 µM); with MMG cells [1] (CHO-K1, 16 h, MMG, complete Ham's F12 medium, 16 h AmB) it was 6.65 ± 0.28 µg/mL (≈ 7.2 µM); in the assay on MMG cells [1] (CHO-K1, 16 h, MMG, ΔFBS medium + 10 µM zaragozic acid (ZA) 16 h), 10 ± 0.67 µg/mL; in the assay with MMG cells [1] (CHO-K1, MMG, complete Ham's F12 + 10 µM probucol (2 h pretreatment), AmB 3 h), 9.47 ± 0.31 µg/mL; with MMG cells [1] (CHO-K1, MMG, ΔFBS medium (delipidated serum)), 10.2 ± 0.42 µg/mL (≈ 11 µM). The IC50 was 6.42 ± 0.38 µg/mL with MMG cells [1] (CHO-K1, MMG, ΔFBS medium + ZA, reloaded with cholesterol (MβCD complex)); 16.8 µg/mL (≈ 18.1 µM) with CHO-K1 wild-type cells; 39.2 ± 4.49 µg/mL (≈ 42.4 µM) in the assay with A1G cells [3] (CHO-K1, 3 h, A1G, complete Ham's F12 medium, AmB 3 h); 30.9 ± 1.66 µg/mL (≈ 33.5 µM) in the assay on A1G cells [3] (CHO-K1, 6 h, A1G, complete Ham's F12 medium, 6 h AmB); 11.4 ± 0.35 µg/mL (≈ 12.4 µM) in the assay with A1G cells [3] (CHO-K1, 16 h, A1G, complete Ham's F12 medium, 16 h AmB); 9.75 ± 0.53 µg/mL in the assay with A1G cells [3] (CHO-K1, 16 h, A1G, ΔFBS medium + 10 µM zaragozic acid (ZA) 16 h). Moreover, the IC50 with A1G cells [3] (CHO-K1, A1G, complete Ham's F12 + 10 µM probucol (2 h pretreatment), AmB 3 h) is 14.4 ± 0.36 µg/mL; with A1G cells [3] (CHO-K1, A1G, ΔFBS medium (delipidated serum)) it was 21.2 ± 1.09 µg/mL (≈ 22.9 µM); with A1G cells [3] (CHO-K1, A1G, ΔFBS medium + ZA, reloaded with cholesterol (MβCD complex)), 18.9 ± 0.77 µg/mL; with Raw 264.7 macrophages (Raw 264.7 cells induced with 1 µM GW3965 for 24 h (ABCA1 expression)) it was 14.6 µg/mL (≈ 15.7 µM); in the assay on Raw 264.7 macrophages (mock (DMSO) control Raw 264.7 cells), 6.18 µg/mL (≈ 6.69 µM). The entries for the “[3H]-cholesterol efflux to AmB” value with A1G cells [2] and with MMG cells [4] were 5.1% and 0.3%, respectively.

A word on the IC50: it is the midpoint of a concentration-inhibition curve.
